{"source": "patent US20160280670A1", "about": "“NOVEL COMPOUNDS FOR REGENERATION OF TERMINALLY-DIFFERENTIATED CELLS AND TISSUES” (ACOUSIA THERAPEUTICS GMBH, priority 2013, published 2016)", "system": "inner ear progenitor cells from the postnatal sensory organ of the mouse (differentiated sensory epithelial patches, \"mini ears\")", "test": "Screening assay: EdU proliferation in differentiated inner ear progenitor sphere patches (\"mini ears\")", "assay_type": "cell-based", "conditions": "test item 5 μM for 96 h", "excerpt": "A screening assay was employed according to an experimental protocol that enables the isolation of inner ear progenitor cells from the postnatal sensory organ of the mouse preparations in vitro. These isolated progenitors generate typical spheres that express a comprehensive set of marker genes that define the early developing sensory epithelium in the progenitor cell state. Under appropriate conditions these spheres can differentiate into epithelial patches that express marker genes that are characteristic of differentiating hair cells and supporting cells as found in the native organ of Corti. These differentiated sensory epithelial patches, tagged “mini ears”, can be generated in sufficient numbers for screening purposes in a low-throughput format. For an appropriate read-out, dedifferentiation was detected with three parameters: (i) labelling of Sox2 expression (Sox2=transcription factor SRY (sex determining region Y-box 2), (ii) an increase in the incorporation of EdU indication proliferation (EdU=thymidine analogue 5-Ethynyl2′-deoxyuridine), and (iii) labelling using the hair cell marker Myosin VIIA.\nCompounds were screened at a standard concentration of 5 μM. […]\nFor ease of comparison the number of EdU positive cells was normalized to the DMSO only condition. Thus, the proliferation activity is expressed as “fold EdU positive cells”. […]"}
{"smiles": "C[C@](N)(Cc1c[nH]c2ccccc12)c1nc(C(=O)NC2CCCCC2)co1.Cl", "note": "[Compound 13, (S)-2-(2-amino-1-(1H-indol-3-yl)propan-2-yl)-N-cyclohexyloxazole-4-carboxamide hydrochloride]", "values": [{"measurement": "Mean percentage of EdU positive cells", "setting": "EdU for the last 5 hours, patches after 14 days differentiation", "result": 3.59, "unit": "%"}, {"measurement": "Fold EdU positive re DMSO (proliferation activity, \"fold EdU positive cells\")", "setting": "number of EdU positive cells normalized to DMSO only condition, hydrochloride", "result": 2.04, "unit": "fold"}]}
